The target of one test is α1-adrenoceptors. Nature of the test: inhibition of [7-methoxy-3H]prazosin binding to α1-adrenoceptors in rat whole cortical tissue. The settings on record: rat whole cortex, 30 min; for pKi: [7-methoxy-3H]prazosin 0.1 nM, 30° C.; for % displacement of radio ligand, α1: at 10^-6 M, [7-methoxy-3H]prazosin, 1 µM. The gist of the method:
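Male CD rat cortical membranes (5 mg wet tissue/tube) in 50 mM Tris-HCl pH 7.6 incubated 30 min at 30 °C with [3H]prazosin (0.1 nM as added); phentolamine 5 μM defined non-specific binding. Compounds screened at 10^-6 M; ≥50% displacers titrated 10^-11–10^-3 M. Filter-bound counts gave IC50, converted to Ki via ligand concentration and KD.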

The next test deals with T1, D2 dopamine receptors (Rattus norvegicus, UniProt P61169).
T1 construct: Striatal tissue from the brains of male Charles River CD rats; from tissue; host or cells: rat striatum membranes
The test is described as follows: inhibition of tritiated (S)-sulpiride binding to D2 dopamine receptors in rat striatal tissue. As to conditions: rat striatum; for pKi: tritiated (S)-sulpiride 1 nM, 4° C., 40 min; for inhibition at 1 µM: at 10^-6 M, tritiated (S)-sulpiride, read-out: % displacement of radio ligand, D2.

For another test, the target named is T2, 5-HT1A receptors (Rattus norvegicus, UniProt P19327).
T2 construct: Hippocampal tissue from the brains of male Sprague-Dawley rats; from tissue; host or cells: rat hippocampus membranes
T2 sequence (P19327 1-422): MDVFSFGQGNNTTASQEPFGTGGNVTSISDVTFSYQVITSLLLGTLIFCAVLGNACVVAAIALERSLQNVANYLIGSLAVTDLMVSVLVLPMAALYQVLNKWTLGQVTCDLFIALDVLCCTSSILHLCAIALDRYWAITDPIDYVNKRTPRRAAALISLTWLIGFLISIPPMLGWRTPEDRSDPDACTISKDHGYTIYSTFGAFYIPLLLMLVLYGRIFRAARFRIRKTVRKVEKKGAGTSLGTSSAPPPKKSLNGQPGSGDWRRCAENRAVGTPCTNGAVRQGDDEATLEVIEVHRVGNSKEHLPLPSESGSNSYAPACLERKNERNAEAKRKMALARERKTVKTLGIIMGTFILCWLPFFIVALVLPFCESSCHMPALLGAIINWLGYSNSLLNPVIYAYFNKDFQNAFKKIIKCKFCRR
The test is described as follows: inhibition of [3H]8-OH-DPAT binding to 5-HT1A receptors in rat hippocampal tissue. As to conditions: rat hippocampus; for pKi: [3H]8-OH-DPAT 2 nM, 25° C., 30 min; for inhibition at 1 µM: at 10^-6 M, [3H]8-OH-DPAT, read-out: % displacement of radio ligand, 5-HT1A. Put shortly:
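Male Sprague-Dawley rat hippocampal membranes in 50 mM Tris-HCl, pH 7.7, with 4 mM CaCl2, 0.1% ascorbate and 10 µM pargyline were incubated 30 min at 25 °C with [3H]8-OH-DPAT (2 nM as added), then filtered. Compounds were screened at 10^-6 M (as added). Curves were run for those giving ≥50% displacement, and IC50 was converted to Ki using ligand concentration and KD.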

pKi: −log10 of the molar value.

T1 sequence (P61169 whole entry): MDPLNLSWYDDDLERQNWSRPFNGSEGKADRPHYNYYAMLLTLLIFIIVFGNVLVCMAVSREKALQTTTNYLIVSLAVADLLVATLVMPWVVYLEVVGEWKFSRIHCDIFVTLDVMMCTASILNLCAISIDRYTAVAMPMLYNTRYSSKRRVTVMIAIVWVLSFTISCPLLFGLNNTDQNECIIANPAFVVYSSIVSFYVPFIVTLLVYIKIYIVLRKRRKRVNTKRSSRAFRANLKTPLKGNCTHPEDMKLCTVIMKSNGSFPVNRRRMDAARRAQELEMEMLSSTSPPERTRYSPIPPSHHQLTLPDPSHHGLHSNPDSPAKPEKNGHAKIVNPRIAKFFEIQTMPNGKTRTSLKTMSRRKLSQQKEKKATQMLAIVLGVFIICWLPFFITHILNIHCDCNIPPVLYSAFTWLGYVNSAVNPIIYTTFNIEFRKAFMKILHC

The pKi is −log10 of the Ki, conventionally taken in molar units. On to `Nc1ccsc1C(=O)NCC1CCN(CC2COc3ccccc3O2)CC1` (stereo not drawn) [Example 16, 3-amino-N-{[1-(1,4-benzodioxan-2-ylmethyl)-4-piperidyl]methyl}thiophene-2-carboxamide], for which the pKi was 8.70 at α1-adrenoceptors, 7.17 at D2 dopamine receptors and 7.20 on 5-HT1A receptors.

Turning to `O=C(NCC1CCN(C[C@H]2COc3ccc(Cl)cc3O2)CC1)c1cccc2cccnc12` [Example 23, (S)-N-{[1-(7-chloro-1,4-benzodioxan-2-ylmethyl)-4-piperidyl]methyl}quinoline-8-carboxamide], the pKi at α1-adrenoceptors was 7.36; at D2 dopamine receptors, 7.10; on 5-HT1A receptors, 7.15.

For `Nc1ncccc1C(=O)NCC1CCN(C[C@H]2COc3cccc(C(F)(F)F)c3O2)CC1` [Example 20, (S)-2-amino-N-{[1-(8-trifluoromethyl-1,4-benzodioxan-2-ylmethyl)-4-piperidyl]methyl}pyridine-3-carboxamide], the results for the pKi on α1-adrenoceptors, at D2 dopamine receptors and on 5-HT1A receptors were 8.40, 7.92 and 7.39, respectively.

Consider `O=C(NCC1CCN(CC2COc3ccccc3O2)CC1)c1cccc2cccnc12` (stereo not drawn) [Example 8, N-{[1-(1,4-benzodioxan-2-ylmethyl)-4-piperidyl]methyl}quinoline-8-carboxamide], for which the pKi at α1-adrenoceptors is 8.10; at D2 dopamine receptors it was 7.02; on 5-HT1A receptors, 7.92.

On to `Nc1ncccc1C(=O)NCC1CCN(CC2COc3ccc(F)cc3O2)CC1` (stereo not drawn) [Example 10, 2-amino-N-{[1-(7-fluoro-1,4-benzodioxan-2-ylmethyl)-4-piperidyl]methyl}pyridine-3-carboxamide], for which the pKi on α1-adrenoceptors was 6.85; at D2 dopamine receptors, 6.96; at 5-HT1A receptors, 7.24.

On to `COc1ccc2c(c1)O[C@@H](CN1CCC(CNC(=O)c3cccnc3N)CC1)CO2` [Example 7, (S)-2-amino-N{[1-(7-methoxy-1,4-benzodioxan-2-ylmethyl)-4-piperidyl]methyl}-pyridine-3-carboxamide], for which the pKi was 6.98 at α1-adrenoceptors, 6.71 on D2 dopamine receptors and 7.42 at 5-HT1A receptors.

As to `COc1cccc2c1OC(CN1CCC(CNC(=O)c3cccnc3N)CC1)CO2` (stereo not drawn) [Example 11, 2-amino-N-{[1-(8-methoxy-1,4-benzodioxan-2-ylmethyl)-4-piperidyl]methyl}pyridine-3-carboxamide], the pKi was 7.74 on α1-adrenoceptors, 7.39 at D2 dopamine receptors and 7.72 at 5-HT1A receptors.

Turning to `O=C(NCC1CCN(C[C@H]2COc3ccc(Cl)cc3O2)CC1)c1ccccn1` [Example 12, (S)-N-{[1-(7-chloro-1,4-benzodioxan-2-ylmethyl)-4-piperidyl]methyl}pyridine-2-carboxamide], the figures for the pKi at α1-adrenoceptors, on D2 dopamine receptors and at 5-HT1A receptors were 6.88, 7.68 and 7.80, respectively.

As for `Nc1ncccc1C(=O)NCC1CCN(C[C@H]2COc3cccc(Cl)c3O2)CC1` [Example 2, (S)-2-amino-N-{[1-(8-chloro-1,4-benzodioxan-2-ylmethyl)-4-piperidyl]methyl}-pyridine-3-carboxamide], the “% displacement of radio ligand, α1” value with α1-adrenoceptors turned out to be 100%. Further, the inhibition at 1 µM on D2 dopamine receptors came to 104%; on 5-HT1A receptors, 97%.

On to `Nc1ncccc1C(=O)NCC1CCN(CC2COc3ccccc3O2)CC1` (stereo not drawn) [Example 4, 2-amino-N-{[1-(1,4-benzodioxan-2-ylmethyl)-4-piperidyl]methyl}pyridine-3-carboxamide], for which, in the test with α1-adrenoceptors, the “% displacement of radio ligand, α1” value is reported as 89%. The inhibition at 1 µM at D2 dopamine receptors was 84%; on 5-HT1A receptors, 90%.

Turning to `Cc1ccc(C(=O)NCC2CCN(C[C@H]3COc4ccc(Cl)cc4O3)CC2)c(N)n1` [Example 14, (S)-2-amino-N-{[1-(7-chloro-1,4-benzodioxan-2-ylmethyl)-4-piperidyl]methyl}-6-methylpyridine-3-carboxamide], the pKi on α1-adrenoceptors was 7.12; at D2 dopamine receptors it was 7.36; at 5-HT1A receptors, 7.59.

`Cc1cccc2c1O[C@@H](CN1CCC(CNC(=O)c3cccnc3N)CC1)CO2` [Example 13, (S)-2-amino-N-{[1-(8-methyl-1,4-benzodioxan-2-ylmethyl)-4-piperidyl]methyl}pyridine-3-carboxamide]: the pKi is 8.00 at α1-adrenoceptors, 7.48 on D2 dopamine receptors and 7.42 on 5-HT1A receptors.

With `Cc1ncccc1C(=O)NCC1CCN(C[C@H]2COc3ccc(Cl)cc3O2)CC1` [Example 18, (S)-N-{[1-(7-chloro-1,4-benzodioxan-2-ylmethyl)-4-piperidyl]methyl}-2-methylpyridine-3-carboxamide], the pKi at α1-adrenoceptors is 6.53; on D2 dopamine receptors, 6.96; at 5-HT1A receptors it was 7.08.

Consider `Nc1ccsc1C(=O)NCC1CCN(C[C@H]2COc3ccc(Cl)cc3O2)CC1` [Example 17, (S)-3-amino-N-{[1-(7-chloro-1,4-benzodioxan-2-ylmethyl)-4-piperidyl]methyl}thiophene-2-carboxamide], for which the pKi is 7.15 at α1-adrenoceptors, 7.44 on D2 dopamine receptors and 7.49 at 5-HT1A receptors.

Turning to `Cc1ccc2c(c1)O[C@@H](CN1CCC(CNC(=O)c3cccnc3N)CC1)CO2` [Example 5, (S)-2-amino-N-{[1-(7-methyl-1,4-benzodioxan-2-ylmethyl)-4-piperidyl]methyl}pyridine-3-carboxamide], the pKi on α1-adrenoceptors was 7.19; at D2 dopamine receptors, 7.25; on 5-HT1A receptors, 7.03.

Take `Nc1ncccc1C(=O)NCC1CCN(C[C@H]2COc3ccc(Cl)cc3O2)CC1` [Example 1, (S)-(-)-2-amino-N-{[1-(7-chloro-1,4-benzodioxan-2-ylmethyl)-4-piperidyl]methyl}pyridine-3-carboxamide]: the “% displacement of radio ligand, α1” value in the test with α1-adrenoceptors was found to be 89%. The values for the pKi at D2 dopamine receptors and on 5-HT1A receptors were 7.49 and 7.38, respectively.

Take `O=C(NCC1CCN(C[C@H]2COc3ccc(Cl)cc3O2)CC1)c1cccnc1` [Example 22, (S)-N-{[1-(7-chloro-1,4-benzodioxan-2-ylmethyl)-4-piperidyl]methyl}pyridine-3-carboxamide]: the pKi at α1-adrenoceptors is 6.76; on D2 dopamine receptors, 7.82; at 5-HT1A receptors it was 7.46.

Turning to `Cc1ncccc1C(=O)NCC1CCN(C[C@H]2COc3cccc(Cl)c3O2)CC1` [Example 9, (S)-N-{[1-(8-chloro-1,4-benzodioxan-2-ylmethyl)-4-piperidyl]methyl}-2-methylpyridine-3-carboxamide], the pKi on α1-adrenoceptors was 7.70; at D2 dopamine receptors, 7.43; at 5-HT1A receptors, 7.27.

Turning to `O=C(NCC1CCN(CC2COc3ccccc3O2)CC1)c1ccccn1` (stereo not drawn) [Example 6, N-{[1-(1,4-benzodioxan-2-ylmethyl)-4-piperidyl]methyl}pyridine-2-carboxamide], the pKi at α1-adrenoceptors is 7.68; at D2 dopamine receptors it was 7.17; on 5-HT1A receptors, 7.57.

As to `Nc1ncccc1C(=O)NCC1CCN(C[C@H]2COc3ccccc3O2)CC1` [Example 15, (S)-2-amino-N-{[1-(1,4-benzodioxan-2-ylmethyl)-4-piperidyl]methyl}pyridine-3-carboxamide], the pKi on α1-adrenoceptors was 7.77; on D2 dopamine receptors, 7.19; at 5-HT1A receptors, 7.39.

For the molecule `Nc1ncccc1C(=O)NCC1CCN(C[C@H]2COc3cccc(F)c3O2)CC1` [Example 3, (S)-(-)-2-amino-N-{[1-(8-fluoro-1,4-benzodioxan-2-ylmethyl)-4-piperidyl]methyl}pyridine-3-carboxamide], the figures for the pKi at α1-adrenoceptors, on D2 dopamine receptors and at 5-HT1A receptors were 8.28, 7.48 and 7.74, respectively.

The record behind these values is patent publication US5935973A, “Heterocyclcarboxamide derivatives and their use as therapeutic agents” (Knoll Aktiengesellschaft, priority 1995, dated 1999).
